# Laboratory results: patent US20230374007A1, “COMPOUNDS AND THEIR USE IN TREATING CANCER” (AstraZeneca AB, priority 2020, published 2023)
# Target: T1, cereblon (CRBN)—DNA damage protein 1 (DDB1) complex (Homo sapiens, UniProt Q96SW2)
# T1 construct: encoding amino acid residues 1 to 442 (Uniprot Q96SW2); hexahistidine (N); thrombin cleavage site (N); made in house; host or cells: Sf9 insect cells (baculovirus co-infection)
# Assay: Cereblon HTRF binding assay
# Text: The synthesized sequence was designed to encode an N-terminal hexahistidine tag, a thrombin cleavage site, an AviTag™ and a tobacco etch virus protease (TEV) cleavage site followed by the CBRN sequence. The resulting protein sequence is listed below.
# The synthesized sequence was designed to encode an N-terminal hexahistidine tag, a tobacco etch virus protease (TEV) cleavage site followed by the DDB1 sequence. […] The linker amino acid residues are underlined and shown in italics.
# Baculovirus production of CBRN and DDB1: Recombinant bacmid and P2 virus of CBRN and DDB1 was generated according to the Bac-to-Bac Baculovirus Expression System manual (ThermoFisher Scientific).
# Protein Purification: Protein purification was initiated by thawing cells (resuspended in Lysis buffer) at r.t. Once thawed, NaCl was added to a final concentration of 200 mM, followed by 0.01 μL/mL Benzonase™ and the lysate was incubated with slow stirring for 20 minutes. After the freeze-thaw lysis, the whole cell lysate was centrifuged at 48 000 g for 45 minutes and all following purification steps were done on ice or in cold-room. Supernatant (cell lysate) was mixed with 1 mL/50 mL lysate Ni Sepharose™ 6 Fast Flow (Cytiva) pre-equilibrated with Wash buffer (50 mM Tris-Cl pH 8, 20 mM Imidazole, 500 mM NaCl, 10% Glycerol, 1 mM TCEP) and incubated with slow stirring for 1 h. The mix was loaded in a 70 mL open gravity flow column, washed with 10 bed volumes of Wash buffer, and stepwise eluted with 300 mM imidazole in Wash buffer. […] After biotinylation, the CBRN/DDB1 complex was purified by Size Exclusion Chromatography on a HiLoad™ 26/60 Superdex™ 200 column equilibrated in SEC buffer (50 mM HEPES pH 7.5, 200 mM NaCl, 5% glycerol, 1 mM TCEP) before flash-freezing in liquid nitrogen and storage at −80° C.
# The assay mixture in a total volume of 4 μL consists of 50 mM Tris-HCl at pH 7.5, 100 mM NaCl, 0.01% Pluronic F127, 1 mM TCEP, 500 μM EDTA, 0.2 nM CRBN-DDB1, 0.2 nM terbium cryptate labeled streptavidin, and 2 nM Cyanine 5-labeled lenalidomide as the probe. […] Reagents were dispensed into the 384-well assay microplate using a Certus Flex liquid dispenser. After incubation for 2 h at r.t., the assay plates were read on a PHERAstar FSX plate reader (BMG Labtech) in the HTRF mode. The raw data from PHERAstar was directly imported into Genedata Screener for analysis. […] The ratio was normalized to positive and negative controls on the same plates to calculate percent inhibition: I %=(I−NC)/(PC−NC), where I are readings from the compound treated well, NC and PC are average readings from negative control wells and positive control wells, respectively. IC50 values were obtained by fitting the I % vs. compound concentration [I] to I %=S0+(SInf−S0)/(1+((IC50/[I])^n)), where S0 is the fitted activity level at zero concentration of test compound, SInf is the fitted activity level at […] concentration of test compound, and n is the hill coefficient of the curve.
# The IC50 values reported below are the calculated mean result of one or more experiments.
# T1 sequence (Q96SW2 with tags, fused parts or gaps): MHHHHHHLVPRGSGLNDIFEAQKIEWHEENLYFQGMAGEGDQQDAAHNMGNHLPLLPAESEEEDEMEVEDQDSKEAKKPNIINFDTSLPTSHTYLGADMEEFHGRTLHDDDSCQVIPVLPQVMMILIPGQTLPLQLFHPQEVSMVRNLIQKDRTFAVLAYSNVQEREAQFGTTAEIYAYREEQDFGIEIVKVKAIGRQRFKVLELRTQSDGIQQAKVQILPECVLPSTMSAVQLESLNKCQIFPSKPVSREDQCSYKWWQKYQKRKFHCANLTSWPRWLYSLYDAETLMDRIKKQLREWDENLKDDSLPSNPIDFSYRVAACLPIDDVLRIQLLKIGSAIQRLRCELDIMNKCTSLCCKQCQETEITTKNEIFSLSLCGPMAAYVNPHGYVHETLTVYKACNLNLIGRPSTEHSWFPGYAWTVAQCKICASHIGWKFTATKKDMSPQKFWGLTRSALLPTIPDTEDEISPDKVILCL
row,Structure (SMILES),IC50 [nM]
1,"O=C1CCN(c2ccc3nn(C4CCNCC4)cc3c2)C(=O)N1 [Example 107, 1-(2-(Piperidin-4-yl)-2H-indazol-5-yl)dihydropyrimidine-2,4 (1H,3H)-dione]",3780
2,"O=C1CCN(c2ccc3[nH]cc(N4CCNCC4)c3c2)C(=O)N1 [Example 77, 1-(3-(Piperazin-1-yl)-1H-indol-5-yl)dihydropyrimidine-2,4 (1H,3H)-dione]",562
3,"O=C1CCN(c2ccc3ccn(C4CCNCC4)c3c2)C(=O)N1 [Example 120, 1-(1-(Piperidin-4-yl)-1H-indol-6-yl)dihydropyrimidine-2,4 (1H,3H)-dione]",2200
4,"O=C1CCN(c2ccc3c(c2)CCNC3)C(=O)N1 [Example 30, 1-(1,2,3,4-Tetrahydroisoquinolin-6-yl)dihydropyrimidine-2,4 (1H,3H)-dione]",8680
5,"O=C1CCN(c2cccc3c2CNC3=O)C(=O)N1 [Example 43, 1-(1-Oxoisoindolin-4-yl)dihydropyrimidine-2,4 (1H,3H)-dione]",3630
6,"O=C1CCN(c2cnc3ccoc3c2)C(=O)N1 [Example 37, 1-(Furo[3,2-b]pyridin-6-yl)dihydropyrimidine-2,4 (1H,3H)-dione]",3100
7,"O=C1CCN(c2ccc3[nH]ccc3c2)C(=O)N1 [Example 56, 1-(1H-Indol-5-yl)dihydropyrimidine-2,4 (1H,3H)-dione]",341
8,"O=C1CCN(c2ccc3c(N4CCNCC4)c[nH]c3c2)C(=O)N1 [Example 71, 1-(3-(Piperazin-1-yl)-1H-indol-6-yl)dihydropyrimidine-2,4 (1H,3H)-dione]",1130
9,"CC(=O)N1CCC(c2cc3ccc(N4CCC(=O)NC4=O)cc3[nH]2)CC1 [Example 83, 1-(2-(1-Acetylpiperidin-4-yl)-1H-indol-6-yl)dihydropyrimidine-2,4 (1H,3H)-dione]",113
10,"Cn1cc(N2CCNCC2)c2ccc(N3CCC(=O)NC3=O)cc21 [Example 74, 1-(1-Methyl-3-(piperazin-1-yl)-1H-indol-6-yl)dihydropyrimidine-2,4 (1H,3H)-dione]",3810
11,"O=C1CCN(c2ccc3c(c2)CCN3)C(=O)N1 [Example 20, 1-(Indolin-5-yl)dihydropyrimidine-2,4 (1H,3H)-dione]",357
12,"Cn1cc2cc(N3CCC(=O)NC3=O)ccc2n1 [Example 8, 1-(2-Methyl-2H-indazol-5-yl)dihydropyrimidine-2,4 (1H,3H)-dione]",4570
13,"CN1CCC(c2cc3ccc(N4CCC(=O)NC4=O)cc3n2C)CC1 [Example 85, 1-(1-Methyl-2-(1-methylpiperidin-4-yl)-1H-indol-6-yl)dihydropyrimidine-2,4 (1H,3H)-dione]",195
14,"CN1CCC(c2cc3c(N4CCC(=O)NC4=O)cccc3n2C)CC1 [Example 89, 1-(1-Methyl-2-(1-methylpiperidin-4-yl)-1H-indol-4-yl)dihydropyrimidine-2,4 (1H,3H)-dione]",1210
15,"Cn1ccc2c(N3CCC(=O)NC3=O)ccc(N3CCNCC3)c21 [Example 125, 1-(1-Methyl-7-(piperazin-1-yl)-1H-indol-4-yl)dihydropyrimidine-2,4 (1H,3H)-dione]",458
16,"O=C1CCN(c2c(Cl)ccc3[nH]ccc23)C(=O)N1 [Example 64, 1-(5-Chloro-1H-indol-4-yl)dihydropyrimidine-2,4 (1H,3H)-dione]",78
17,"CN1CCC(c2c[nH]c3cc(N4CCC(=O)NC4=O)ccc23)CC1 [Example 117, 1-(3-(1-Methylpiperidin-4-yl)-1H-indol-6-yl)dihydropyrimidine-2,4 (1H,3H)-dione]",2160
18,"CNC(=O)Cn1ccc2c(N3CCC(=O)NC3=O)cccc21 [Example 70, 2-(4-(2,4-Dioxotetrahydropyrimidin-1 (2H)-yl)-1H-indol-1-yl)-N-methylacetamide]",1010
19,"CN1CCN(c2ccc(N3CCC(=O)NC3=O)c3cc[nH]c23)CC1 [Example 124, 1-(7-(4-Methylpiperazin-1-yl)-1H-indol-4-yl)dihydropyrimidine-2,4 (1H,3H)-dione]",527

row,Structure (SMILES),IC50 [nM]
1,"Cn1ccc2cc(N3CCC(=O)NC3=O)cnc21 [Example 11, 1-(1-Methyl-1H-pyrrolo[2,3-b]pyridin-5-yl)dihydropyrimidine-2,4 (1H,3H)-dione]",26900
2,"O=C1CCN(c2c(F)ccc3[nH]ccc23)C(=O)N1 [Example 63, 1-(5-Fluoro-1H-indol-4-yl)dihydropyrimidine-2,4 (1H,3H)-dione]",235
3,"O=c1ccn(-c2ccc3cc[nH]c3c2)c(=O)[nH]1 [Example 13, 1-(1H-Indol-6-yl)pyrimidine-2,4 (1H,3H)-dione]",765
4,"CN1CCC(c2cc3ccc(N4CCC(=O)NC4=O)cc3[nH]2)CC1 [Example 82, 1-(2-(1-Methylpiperidin-4-yl)-1H-indol-6-yl)dihydropyrimidine-2,4 (1H,3H)-dione]",168
5,"CC(=O)N1CCC(c2c[nH]c3cc(N4CCC(=O)NC4=O)ccc23)CC1 [Example 118, 1-(3-(1-Acetylpiperidin-4-yl)-1H-indol-6-yl)dihydropyrimidine-2,4 (1H,3H)-dione]",389
6,"CN1CCn2c(cc3cc(N4CCC(=O)NC4=O)ccc32)C1 [Example 105, 1-(2-Methyl-1,2,3,4-tetrahydropyrazino[1,2-a]indol-8-yl)dihydropyrimidine-2,4 (1H,3H)-dione]",460
7,"O=C1CCN(c2ccc3nn[nH]c3c2)C(=O)N1 [Example 38, 1-(1H-Benzo[d][1,2,3]triazol-6-yl)dihydropyrimidine-2,4 (1H,3H)-dione]",566
8,"O=C1CCN(c2ccc3oc(=O)[nH]c3c2)C(=O)N1 [Example 47, 1-(2-Oxo-2,3-dihydrobenzo[d]oxazol-5-yl)dihydropyrimidine-2,4 (1H,3H)-dione]",3060
9,"O=C1CCN(c2ccn3cc(C4CCNCC4)nc3c2)C(=O)N1 [Example 92, 1-(2-(Piperidin-4-yl)imidazo[1,2-a]pyridin-7-yl)dihydropyrimidine-2,4 (1H,3H)-dione]",5240
10,"O=C1CCN(c2ccc3c(c2)CCCN3)C(=O)N1 [Example 26, 1-(1,2,3,4-Tetrahydroquinolin-6-yl)dihydropyrimidine-2,4 (1H,3H)-dione]",1490
11,"CNC(=O)CCn1ccc2ccc(N3CCC(=O)NC3=O)cc21 [Example 69, 3-(6-(2,4-Dioxotetrahydropyrimidin-1 (2H)-yl)-1H-indol-1-yl)-N-methylpropanamide]",3540
12,"O=C1CCN(c2ccc3ncsc3c2)C(=O)N1 [Example 9, 1-(Benzo[d]thiazol-6-yl)dihydropyrimidine-2,4 (1H,3H)-dione]",5350
13,"O=C1CCN(c2ccc3c(N4CCNCC4)noc3c2)C(=O)N1 [Example 93, 1-(3-(Piperazin-1-yl)benzo[d]isoxazol-6-yl)dihydropyrimidine-2,4 (1H,3H)-dione]",12800
14,"O=C1CCN(c2ccc3ncoc3c2)C(=O)N1 [Example 5, 1-(Benzo[d]oxazol-6-yl)dihydropyrimidine-2,4 (1H,3H)-dione]",6740
15,"O=C1CCN(c2ccc3cc4n(c3c2)CCNC4)C(=O)N1 [Example 102, 1-(1,2,3,4-Tetrahydropyrazino[1,2-a]indol-7-yl)dihydropyrimidine-2,4 (1H,3H)-dione]",274
16,"COc1cc(N2CCC(=O)NC2=O)c2ccn(C)c2c1 [Example 16, 1-(6-Methoxy-1-methyl-1H-indol-4-yl)dihydropyrimidine-2,4 (1H,3H)-dione]",211
17,"CN1CCN(c2cn(C)c3cc(N4CCC(=O)NC4=O)ccc23)CC1 [Example 75, 1-(1-Methyl-3-(4-methylpiperazin-1-yl)-1H-indol-6-yl)dihydropyrimidine-2,4 (1H,3H)-dione]",4040
18,"O=C1CCN(c2ccc3nc(N4CCNCC4)oc3c2)C(=O)N1 [Example 98, 1-(2-(Piperazin-1-yl)benzo[d]oxazol-6-yl)dihydropyrimidine-2,4 (1H,3H)-dione]",3120
